The target of one experiment is P. aeruginosa PqsA (Pseudomonas aeruginosa, UniProt Q9I4X3). Kind of experiment: PqsA inhibition, spectrophotometric assay with recombinant PqsA (anthranilyl-CoA formation at 365 nm). The experiment is classed as biochemical. The conditions noted are these: for inhibition at 10 µM: read-out: % inhibition at 10 μM of P. aeruginosa PqsA, 10 μM; for PqsA inhibition, potency in words: short time scale of the assay; for IC50: IC50 for inhibition of P. aeruginosa PqsA. The protocol:
PqsA inhibitors were evaluated using a quantitative spectrophotometric assay with recombinant PqsA, detecting formation of anthranilyl-CoA at 365 nm. See, e.g., Coleman et al. (2008) J. Bacteriol. 190, 1247. […] See, e.g., Morrison et al. Biochim. Biophys. Acta, Enzymol. 185, 269-286; Williams et al. (1979) Methods Enzymol. 63, 437. […] See, e.g., Qiao et al. (2007) J. Am. Chem. Soc. 129, 6350.
Reactions were performed at 37° C. in a 0.5 mL volume in a Varian Cary 100 UV-visible spectrophotometer with Cary WinUV software. Reaction mixtures contained 100 mM HEPES, pH 8.0, 0.2 mM dithiothreitol, 2 mM MgCl2, ˜3.3 μg PqsA protein (˜60 nM final), and depending on which substrate varied, 1 mM ATP (disodium salt), 0.5 mM coenzyme A (tri-lithium salt), 0.5 mM sodium anthranilate, and inhibitor (usually as a DMSO stock solution). Reactions were blanked and preincubated with all components except anthranilate at 37° C. for 1 min, then initiated by addition of anthranilate. Formation of anthraniloyl-CoA was monitored ance at 365 nm (ε=5.5 mM−1 cm−1) for 1 min. Data were analyzed using GraphPad Prism 6 software.

Experiment [1] deals with HHQ and PQS quinolone production in P. aeruginosa strain PA14. Nature of the experiment: Inhibition of HHQ and PQS quinolone production in P. aeruginosa strain PA14 (LC-MS/MS). The experiment is classed as cell-based, Pseudomonas aeruginosa. The conditions noted are these: 1.5 mM, HHQ 8 h, PQS 20 h. The protocol: The production of PQS and HHQ by strain PA14 was performed in triplicate in 14-mL round bottom falcon tubes containing 3-mL cultures in LB medium. Tubes were incubated at 37° C. in an orbital shaker at 225 rpm. Cultures were inoculated with 15-hour culture in LB in order to obtain a starting OD600=0.05, with or without inhibitors added. For PQS and HHQ analysis, a 20 μl aliquot was taken at time points as indicated. Each sample was diluted with 180 μL of methanol containing the internal standard (100 μM of d^4-PQS or d^4-HHQ) and 2% acetic acid. The solution was then vertexed and centrifuged at 13,000 g for 5 minutes, and the supernatant was transferred to a 96-well plates for LC-MS/MS analysis. Bacterial growth was measured by recording OD600 at 20 h to provide the data in FIG. 7A.
Liquid chromatography tandem mass spectrometry (LC-MS/MS) was carried out on an Agilent Technologies 6410 triple quad LC-MS/MS system with autosampler in electrospray ionization (ESI) mode, with an Agilent Zorbax Eclipse XDB-C18 reverse phase column (50×4.6 mm, 5 μm) using a flow rate of 0.5 mL/minute and an isocratic mobile phase of 60% CH3CN in 0.1% aqueous formic acid over 5 minutes. Positive electrospray in MRM mode was employed to quantify PQS and HHQ, using the ion transitions HHQ 244 to 159, d^4-HHQ 248 to 163, PQS 260 to 175, and d^4-PQS 264 to 179; shown in Table E3.
PqsA inhibitors 1-5 were evaluated for their ability to inhibit HHQ and PQS quinolone production in P. aeruginosa strain PA14 (FIG. 6). HHQ and PQS concentrations were determined by LC-MS/MS quantitation relative to deuterated internal standards. 6-Fluoroanthranilate (6FABA), a substrate analogue reported previously to inhibit quinolone production at millimolar concentrations, was used as a positive control. Compounds were initially tested at 1.5 mM concentration, and HHQ and PQS were quantified at 8 and 20 hours, respectively. These time points were selected based on an initial time course study of quinolone production in the absence of inhibitors, with HHQ or PQS production peaking at these respective time points. […] This could be due to differences in cell penetration, stability, and/or target specificity. Finally, because inhibitors of the quinolone quorum sensing pathway should not impact bacterial growth, we confirmed that none of the six inhibitors above inhibited growth over 20 h (FIG. 7A). Encouraged by the ability of anthranilyl-AMS (1) and anthranilyl-AMSN (2) to inhibit HHQ and PQS quinolone production, the activity of these two inhibitors and 6FABA were investigated in greater detail. In untreated controls, HHQ and PQS production peaked at 8 and 20 hours, respectively. Previously reported time course studies have similarly shown that HHQ levels peak at 6-8 hours while PQS levels continue to rise. See, e.g., Deziel et al. (2004) Proc. Natl. Acad. Sci. U.S.A 101, 1339; Kesarwani et al. (2011) PLoS Pathog. 7, e1002192. All three inhibitors were able to decrease quinolone production in a dose- and time-dependent manner (FIG. 2A). […] Such a perturbation might still be sufficient to impact P. aeruginosa virulence in vivo. […] See, e.g., Lesic et al. (2007) PLoS Pathog. 3, e126.

Sequence of P. aeruginosa PqsA (Q9I4X3 whole entry): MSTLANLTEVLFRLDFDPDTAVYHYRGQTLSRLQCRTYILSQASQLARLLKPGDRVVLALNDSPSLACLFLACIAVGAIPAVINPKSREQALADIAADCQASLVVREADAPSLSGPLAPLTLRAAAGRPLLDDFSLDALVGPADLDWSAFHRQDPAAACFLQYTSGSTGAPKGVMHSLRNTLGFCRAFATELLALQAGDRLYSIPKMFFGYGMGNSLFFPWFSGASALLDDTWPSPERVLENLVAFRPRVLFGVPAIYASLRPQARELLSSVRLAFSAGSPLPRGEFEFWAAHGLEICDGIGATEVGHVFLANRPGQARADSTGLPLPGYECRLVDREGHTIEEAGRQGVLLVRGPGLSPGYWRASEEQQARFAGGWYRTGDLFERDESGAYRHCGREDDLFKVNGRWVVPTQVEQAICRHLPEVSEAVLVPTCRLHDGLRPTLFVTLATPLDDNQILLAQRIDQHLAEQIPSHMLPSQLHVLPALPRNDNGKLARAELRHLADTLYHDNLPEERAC

On to `NCc1ccc(Nc2nc(N)c3ncn([C@@H]4O[C@H](COS(=O)(=O)NC(=O)c5ccccc5N)[C@@H](O)[C@H]4O)c3n2)cc1` [DST-Pqs29], for which, on P. aeruginosa PqsA, the “% inhibition at 10 μM of P. aeruginosa PqsA” value is on record as 76.0 ± 1.3%.

Regarding `Nc1ncnc2c1ncn2[C@@H]1O[C@H](COS(=O)(=O)NC2(c3ccccc3F)COC2)[C@@H](O)[C@H]1O` [DST-Pqs30], the inhibition at 10 µM on P. aeruginosa PqsA was less than 1%.

With `Nc1ccccc1/C=C/S(=O)(=O)NC[C@H]1O[C@@H](n2cnc3c(N)ncnc32)[C@H](O)[C@@H]1O` [compound 6, Anthranilyl-AVSN], on P. aeruginosa PqsA, the “PqsA inhibition, potency in words” value is recorded as “not as effective”.

Turning to `Nc1ccccc1C(=O)NS(=O)(=O)OC[C@H]1O[C@@H](n2cnc3c(N)nc(C#Cc4ccccc4)nc32)[C@H](O)[C@@H]1O` [JI-C-2013-456], at P. aeruginosa PqsA, the IC50 was determined as 1460 nM and the inhibition at 10 µM was found to be 95.9 ± 0.4%.

Take `Nc1ccc(Cl)cc1C(=O)NS(=O)(=O)OC[C@H]1O[C@@H](n2cnc3c(N)ncnc32)[C@H](O)[C@@H]1O` [DST-Pqs15]: at P. aeruginosa PqsA, the IC50 came out at 1520 nM and the inhibition at 10 µM came out at 97.3 ± 0.9%.

As to `Nc1ncnc2c1ncn2[C@@H]1O[C@H](COS(=O)(=O)NC(=O)c2cccnc2Cl)[C@@H](O)[C@H]1O` [DST-Pqs8], on P. aeruginosa PqsA, the inhibition at 10 µM stood at 10.3 ± 5.3%.

On to `Nc1ccccc1C(=O)NS(=O)(=O)OC[C@H]1O[C@@H](n2cnc3c(N)nc(Nc4ccccc4)nc32)[C@H](O)[C@@H]1O` [JI-C-2013-451], for which, at P. aeruginosa PqsA, the IC50 turned out to be 2070 nM and the inhibition at 10 µM turned out to be 95.1 ± 0.2%.

Take `Nc1ccccc1C(=O)NS(=O)(=O)NC[C@H]1O[C@@H](n2cnc3c(N)ncnc32)[C@H](O)[C@@H]1O` [DST-Pqs2]: on P. aeruginosa PqsA, the IC50 worked out at 213 nM and the inhibition at 10 µM was determined as 100%.

On to `Nc1ncnc2c1ncn2[C@@H]1O[C@H](CNS(=O)(=O)/C=C/c2ccccc2O)[C@@H](O)[C@H]1O` [compound 7, Salicyl-AVSN, reference compound], for which the “PqsA inhibition, potency in words” value at P. aeruginosa PqsA was “not as effective”.

Consider `Nc1cccc(Cl)c1C(=O)NS(=O)(=O)OC[C@H]1O[C@@H](n2cnc3c(N)ncnc32)[C@H](O)[C@@H]1O` [DST-Pqs16], for which, on P. aeruginosa PqsA, the IC50 was 552 nM and the inhibition at 10 µM worked out at 100%.

As to `Nc1ncnc2c1ncn2[C@@H]1O[C@H](CNS(=O)(=O)NC(=O)c2ccccc2O)[C@@H](O)[C@H]1O` [salicyl-AMSN, Salicyl-AMSN, reference compound], the “inhibition of quinolone production, in words” value in experiment [1] is reported as “less potent inhibitors of quinolone production”. The “PqsA inhibition, potency in words” value at P. aeruginosa PqsA is reported as “potency similar to that of the cognate anthranilyl inhibitors”.

Consider `Nc1ccccc1C1(NS(=O)(=O)OC[C@H]2O[C@@H](n3cnc4c(N)ncnc43)[C@H](O)[C@@H]2O)COC1` [DST-Pqs33], for which the inhibition at 10 µM on P. aeruginosa PqsA stood at 4.6 ± 2.9%.

In the case of `Nc1cc2ccccc2cc1C(=O)NS(=O)(=O)OC[C@H]1O[C@@H](n2cnc3c(N)ncnc32)[C@H](O)[C@@H]1O` [DST-Pqs9], the inhibition at 10 µM on P. aeruginosa PqsA was less than 1%.

Consider `CN(C)c1ncnc2c1ncn2[C@@H]1O[C@H](COS(=O)(=O)NC(=O)c2ccccc2N)[C@@H](O)[C@H]1O` [DST-Pqs18], for which, at P. aeruginosa PqsA, the inhibition at 10 µM is 21.3 ± 1.9%.

For the compound `Nc1ccccc1C(=O)NS(=O)(=O)OC[C@H]1O[C@@H](n2cnc3c(NC4CC4)ncnc32)[C@H](O)[C@@H]1O` [DST-Pqs17], the inhibition at 10 µM on P. aeruginosa PqsA was 1.3 ± 3%.

Take `Nc1cc(C(F)(F)F)ccc1C(=O)NS(=O)(=O)OC[C@H]1O[C@@H](n2cnc3c(N)ncnc32)[C@H](O)[C@@H]1O` [DST-Pqs10]: at P. aeruginosa PqsA, the inhibition at 10 µM was 1.1 ± 2.6%.

Turning to `Nc1ncnc2c1ncn2[C@@H]1O[C@H](COS(=O)(=O)NC(=O)c2ccccc2O)[C@@H](O)[C@H]1O` [salicyl-AMS, Salicyl-AMS, reference compound], the “inhibition of quinolone production, in words” value in experiment [1] is reported as “less potent inhibitors of quinolone production”. Besides, at P. aeruginosa PqsA, the “PqsA inhibition, potency in words” value was “potency similar to that of the cognate anthranilyl inhibitors”.

As for `NCc1ccc(Nc2nc(N)c3ncn([C@@H]4O[C@H](COS(=O)(=O)NC(=O)c5ccccc5N)[C@@H](O)[C@H]4O)c3n2)cc1` [DST-Pqs28], the “% inhibition at 10 μM of P. aeruginosa PqsA” value on P. aeruginosa PqsA amounted to 9.5 ± 3.9%.

Turning to `Nc1ccccc1C(=O)NS(=O)(=O)OC[C@H]1O[C@@H](n2cnc3c(N)ncnc32)[C@H](N)[C@@H]1N` [JI-C-2013-189], on P. aeruginosa PqsA, the IC50 is 7220 nM and the inhibition at 10 µM was 77.8 ± 0.2%.

Consider `Nc1ccccc1C(=O)NS(=O)(=O)OC[C@H]1O[C@@H](n2cnc3c(N)nc(-c4ccccc4)nc32)[C@H](O)[C@@H]1O` [JI-C-2013-454], for which, at P. aeruginosa PqsA, the IC50 is 25000 nM and the inhibition at 10 µM was 42.7 ± 0.2%.

For the compound `Nc1ccccc1C(=O)NS(=O)(=O)OC[C@@H]1CC[C@H](n2cnc3c(N)ncnc32)O1` [JI-C-2014-025], on P. aeruginosa PqsA, the IC50 was found to be 5000 nM and the inhibition at 10 µM was 91.2 ± 0.9%.

In the case of `Nc1ncnc2c1ncn2[C@@H]1O[C@H](COS(=O)(=O)NC2(c3ccccc3O)COC2)[C@@H](O)[C@H]1O` [DST-Pqs31], the inhibition at 10 µM on P. aeruginosa PqsA was less than 1%.

On to `Nc1c(Cl)cccc1C(=O)NS(=O)(=O)OC[C@H]1O[C@@H](n2cnc3c(N)ncnc32)[C@H](O)[C@@H]1O` [DST-Pqs13], for which, at P. aeruginosa PqsA, the IC50 amounted to 1230 nM and the inhibition at 10 µM worked out at 97.2 ± 1.2%.

On to `Nc1ccccc1C(=O)NS(=O)(=O)OC[C@H]1O[C@@H](n2cnc3c(N)ncnc32)[C@H](O)[C@@H]1O` [DST-Pqs1], for which, on P. aeruginosa PqsA, the half-inhibitory concentration (IC50) came out at 309 nM and the inhibition at 10 µM came out at 98.6 ± 2.3%.

For the compound `CNc1ncnc2c1ncn2[C@@H]1O[C@H](COS(=O)(=O)NC(=O)c2ccccc2N)[C@@H](O)[C@H]1O` [DST-Pqs19], at P. aeruginosa PqsA, the half-inhibitory concentration (IC50) worked out at 39200 nM and the inhibition at 10 µM came to 32.1 ± 2.8%.

For the compound `Nc1ccccc1C(=O)NS(=O)(=O)OC[C@H]1O[C@@H](n2cnc3c(N)ncnc32)C[C@@H]1O` [JI-C-2014-008], on P. aeruginosa PqsA, the IC50 was found to be 444 nM and the inhibition at 10 µM was 99.8 ± 0.2%.

With `Nc1cccc(F)c1C(=O)NS(=O)(=O)OC[C@H]1O[C@@H](n2cnc3c(N)ncnc32)[C@H](O)[C@@H]1O` [DST-Pqs12], on P. aeruginosa PqsA, the IC50 was 516 nM and the inhibition at 10 µM is 100%.

For the compound `Nc1cc(Cl)ccc1C(=O)NS(=O)(=O)OC[C@H]1O[C@@H](n2cnc3c(N)ncnc32)[C@H](O)[C@@H]1O` [DST-Pqs14], the IC50 on P. aeruginosa PqsA came to 828 nM.

For the compound `Nc1cc(F)ccc1C(=O)NS(=O)(=O)OC[C@H]1O[C@@H](n2cnc3c(N)ncnc32)[C@H](O)[C@@H]1O` [DST-Pqs11], at P. aeruginosa PqsA, the IC50 came out at 107 nM and the inhibition at 10 µM was found to be 100%.

As for `Nc1ncnc2c1ncn2[C@@H]1O[C@H](COS(=O)(=O)NC2(c3ccccc3)COC2)[C@@H](O)[C@H]1O` [DST-Pqs32], the inhibition at 10 µM on P. aeruginosa PqsA stood at 2.3 ± 0.9%.

In the case of `NCc1ccccc1Nc1nc(N)c2ncn([C@@H]3O[C@H](COS(=O)(=O)NC(=O)c4ccccc4N)[C@@H](O)[C@H]3O)c2n1` [DST-Pqs27], at P. aeruginosa PqsA, the IC50 stood at 5240 nM and the inhibition at 10 µM was 84.8 ± 1.5%.
